According to patent US6737383B1, “Herbicidal oxadiazolidines” (priority 1999, dated 2004):

Key:
surinam grass = assay: Test B pre/postemergence surinam grass; format: in vivo, Brachiaria decumbens
In short: (§1)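 Herbicidal effect was estimated by eye on a ten-point control scale after plants spent twelve to sixteen days in a greenhouse following soil or foliar treatment. Foliar sprays targeted plants at one to four leaves; all doses were formulated in a non-phytotoxic solvent with surfactant.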

crabgrass = assay: Test B pre/postemergence crabgrass; format: in vivo, Digitaria sanguinalis
In short: as §1

rape = assay: Test B pre/postemergence rape; format: in vivo, Brassica napus
In short: as §1

morningglory = assay: Test B pre/postemergence morningglory; format: in vivo, Ipomoea hederacea
In short: as §1

bamyardgrass = assay: Test B flood test barnyardgrass; format: in vivo, Echinochloa crus-galli
In short: (§2)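 Plants were grown to the 2-leaf stage before treatment with test chemical, then held in a greenhouse for twelve to sixteen days. Injury was visually rated against untreated controls on a 0–10 scale, where 0 is no effect and 10 is complete control.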

pigweed = assay: Test B pre/postemergence pigweed; format: in vivo, Amaranthus retroflexus
In short: as §1

rice = assay: Test B flood test rice; format: in vivo, Oryza sativa
In short: as §2

velvetleaf = assay: Test B pre/postemergence velvetleaf; format: in vivo, Abutilon theophrasti
In short: as §1

blackgrass = assay: Test B pre/postemergence blackgrass; format: in vivo, Alopecurus myosuroides
In short: as §1

bedstraw = assay: Test B pre/postemergence bedstraw; format: in vivo, Galium aparine; details: Postemergence
In short: as §1

corn = assay: Test B pre/postemergence corn; format: in vivo, Zea mays
In short: as §1

sugar beet = assay: Test B pre/postemergence sugar beet; format: in vivo, Beta vulgaris
In short: as §1

wild oat = assay: Test B pre/postemergence wild oat; format: in vivo, Avena fatua
In short: as §1

cocklebur = assay: Test B pre/postemergence cocklebur; format: in vivo, Xanthium strumarium
In short: as §1

smallflower flatsedge = assay: Test B flood test smallflower flatsedge; format: in vivo, Cyperus difformis
In short: as §2

giant foxtail = assay: Test B pre/postemergence giant foxtail; format: in vivo, Setaria faberii
In short: as §1

[1] = Postemergence, Rate 125 g/ha, scale 0 to 10, 0 is no effect, 10 is complete control
[2] = Postemergence, Rate 500 g/ha, scale 0 to 10, 0 is no effect, 10 is complete control
[3] = Preemergence, Rate 62 g/ha, scale of 0 to 10 where 0 is no effect and 10 is complete control
[4] = Preemergence, Rate 125 g/ha, scale 0 to 10, 0 is no effect, 10 is complete control
[5] = Preemergence, Rate 250 g/ha, scale 0 to 10, 0 is no effect, 10 is complete control
[6] = Preemergence, Rate 500 g/ha, scale 0 to 10, 0 is no effect, 10 is complete control
[7] = Rate 62 g/ha, Postemergence, scale 0 to 10, 0 no effect, 10 complete control
[8] = Postemergence, Rate 250 g/ha, scale 0 to 10
[9] = Rate 62 g/ha, flood test species, Pre-emergence, visual evaluation after twelve to sixteen days
[10] = Rate 125 g/ha, under heading Pre-emergence, flood test species, visual evaluation after twelve to sixteen days
[11] = Rate 250 g/ha, Pre-emergence (flood test species), scale 0 to 10, 0 is no effect, 10 is complete control
[12] = Rate 500 g/ha, Pre-emergence section of Table B, 0 to 10 scale (0 no effect, 10 complete control)

## CC(C)C(=O)Cn1c(=O)on(C(=O)N(c2ccc(F)cc2F)C(C)C)c1=O [Compound 486]
Surinam grass; [1]
  B. signalgrass plant response rating: 0
Surinam grass; Postemergence, Rate 250 g/ha, scale 0 to 10, 0 no effect, 10 complete control
  B. signalgrass plant response rating: 1
Surinam grass; [2]
  Plant response rating, B. signalgrass: 5
Surinam grass; [3]
  Plant response rating, B. signalgrass: 5
Surinam grass; [4]
  B. signalgrass plant response rating: 5
Surinam grass; [5]
  B. signalgrass plant response rating: 6
Surinam grass; [6]
  B. signalgrass plant response rating: 8
Surinam grass; [7]
  B. signalgrass plant response rating: 0
crabgrass; [1]
  Crabgrass plant response rating: 3
crabgrass; [8]
  Crabgrass plant response rating: 5
crabgrass; [2]
  Plant response rating, Crabgrass: 9
crabgrass; [3]
  Plant response rating, Crabgrass: 8
crabgrass; [4]
  Crabgrass plant response rating: 9
crabgrass; [5]
  Crabgrass plant response rating: 10
crabgrass; [6]
  Crabgrass plant response rating: 10
crabgrass; [7]
  Crabgrass plant response rating: 0
rape; [1]
  Rape plant response rating: 0
rape; [2]
  Plant response rating, Rape: 1
rape; [3]
  Plant response rating, Rape: 2
rape; [4]
  Rape plant response rating: 2
rape; [5]
  Rape plant response rating: 6
rape; [6]
  Rape plant response rating: 6
rape; [7]
  Rape plant response rating: 0
morningglory; [1]
  Morningglory plant response rating: 1
morningglory; [2]
  Plant response rating, Morningglory: 2
morningglory; [3]
  Plant response rating, Morningglory: 0
morningglory; [4]
  Morningglory plant response rating: 0
morningglory; [5]
  Morningglory plant response rating: 0
morningglory; [6]
  Morningglory plant response rating: 0
morningglory; [7]
  Morningglory plant response rating: 1
bamyardgrass; [9]
  Plant response rating, Barnyardgrass (0 to 10 scale, 0 is no effect, 10 is complete control): 0
bamyardgrass; [10]
  Barnyardgrass plant response rating (0 to 10 scale, 0 is no effect, 10 is complete control): 0
bamyardgrass; [11]
  Barnyardgrass plant response rating: 0
bamyardgrass; [12]
  Barnyardgrass plant response rating: 0
pigweed; [1]
  Redroot pigweed plant response rating: 0
pigweed; [2]
  Plant response rating, Redroot pigweed: 2
pigweed; [3]
  Plant response rating, Redroot pigweed: 6
pigweed; [4]
  Redroot pigweed plant response rating: 8
pigweed; [5]
  Redroot pigweed plant response rating: 9
pigweed; [6]
  Redroot pigweed plant response rating: 9
pigweed; [7]
  Redroot pigweed plant response rating: 0
rice; [9]
  Plant response rating, Rice (0 to 10 scale, 0 is no effect, 10 is complete control): 0
rice; [10]
  Rice plant response rating (0 to 10 scale, 0 is no effect, 10 is complete control): 0
rice; [11]
  Rice plant response rating: 0
rice; [12]
  Rice plant response rating: 0
velvetleaf; [1]
  Velvetleaf plant response rating: 0
velvetleaf; [2]
  Plant response rating, Velvetleaf: 6
velvetleaf; [3]
  Plant response rating, Velvetleaf: 0
velvetleaf; [4]
  Velvetleaf plant response rating: 0
velvetleaf; [5]
  Velvetleaf plant response rating: 0
velvetleaf; [6]
  Velvetleaf plant response rating: 0
velvetleaf; [7]
  Velvetleaf plant response rating: 0
blackgrass; [1]
  Blackgrass plant response rating: 6
blackgrass; [8]
  Blackgrass plant response rating: 8
blackgrass; [2]
  Plant response rating, Blackgrass: 8
blackgrass; [3]
  Plant response rating, Blackgrass: 7
blackgrass; [4]
  Blackgrass plant response rating: 9
blackgrass; [5]
  Blackgrass plant response rating: 10
blackgrass; [6]
  Blackgrass plant response rating: 10
blackgrass; [7]
  Blackgrass plant response rating: 0
bedstraw; Rate 125 g/ha, scale 0 to 10, 0 is no effect, 10 is complete control
  Bedstraw plant response rating: 1
bedstraw; Rate 250 g/ha, scale 0 to 10
  Bedstraw plant response rating: 4
bedstraw; Rate 500 g/ha, scale 0 to 10, 0 is no effect, 10 is complete control
  Plant response rating, Bedstraw: 8
bedstraw; Rate 62 g/ha, scale 0 to 10, 0 no effect, 10 complete control
  Bedstraw plant response rating: 0
corn; [1]
  Corn plant response rating: 0
corn; [8]
  Corn plant response rating: 0
corn; [2]
  Plant response rating, Corn: 3
corn; [3]
  Plant response rating, Corn: 0
corn; [4]
  Corn plant response rating: 0
corn; [5]
  Corn plant response rating: 5
corn; [6]
  Corn plant response rating: 8
corn; [7]
  Corn plant response rating: 0
Sugar beet; [1]
  Sugarbeets plant response rating: 0
Sugar beet; [2]
  Plant response rating, Sugarbeets: 2
Sugar beet; [3]
  Plant response rating, Sugarbeets: 0
Sugar beet; [4]
  Sugarbeets plant response rating: 0
Sugar beet; [5]
  Sugarbeets plant response rating: 4
Sugar beet; [6]
  Sugarbeets plant response rating: 6
Sugar beet; [7]
  Sugarbeets plant response rating: 0
Wild oat; [1]
  Wild oats plant response rating: 0
Wild oat; [2]
  Plant response rating, Wild oats: 3
Wild oat; [3]
  Plant response rating, Wild oats: 0
Wild oat; [4]
  Wild oats plant response rating: 3
Wild oat; [5]
  Wild oats plant response rating: 5
Wild oat; [6]
  Wild oats plant response rating: 8
Wild oat; [7]
  Wild oats plant response rating: 0
cocklebur; [1]
  Cocklebur plant response rating: 0
cocklebur; [8]
  Cocklebur plant response rating: 0
cocklebur; [2]
  Plant response rating, Cocklebur: 0
cocklebur; [3]
  Plant response rating, Cocklebur: 0
cocklebur; [4]
  Cocklebur plant response rating: 0
cocklebur; [6]
  Cocklebur plant response rating: 0
cocklebur; [7]
  Cocklebur plant response rating: 0
Smallflower flatsedge; [9]
  Plant response rating, S. Flatsedge (0 to 10 scale, 0 is no effect, 10 is complete control): 0
Smallflower flatsedge; [10]
  S. Flatsedge plant response rating (0 to 10 scale, 0 is no effect, 10 is complete control): 0
Smallflower flatsedge; [11]
  S. Flatsedge plant response rating: 0
Smallflower flatsedge; [12]
  S. Flatsedge plant response rating: 0
Giant foxtail; [1]
  Giant foxtail plant response rating: 7
Giant foxtail; [2]
  Plant response rating, Giant foxtail: 9
Giant foxtail; [3]
  Plant response rating, Giant foxtail: 9
Giant foxtail; [4]
  Giant foxtail plant response rating: 10
Giant foxtail; [5]
  Giant foxtail plant response rating: 10
Giant foxtail; [6]
  Giant foxtail plant response rating: 10
Giant foxtail; [7]
  Giant foxtail plant response rating: 2
